Patent EP0908457B1, “3-(1,2-benzisothiazol- and isoxazol-5-Y1)-2,4(1H,3H)-pyrimidinedione or thione and 3-(1,2-benzisothiazol- and isoxazol-5-y1)-4(3H)-pyrimidinone or thione herbicidal agents” (BASF AKTIENGESELLSCHAFT, priority 1997, dated 1999)

Tests used:
[1] = tested on: Echinochloa oryzoides (Ard.) Fritsch.; assay: Preemergence weed control under flooded paddy conditions, ECHORC (Watergrass (Calif.)); format: in vivo; conditions: preemergence, flooded paddy, rated three to four weeks after treatment; as to herbicidal effect rating, ECHORC: meaning of each grade not given here
Cyperus iria = assay: Preemergence weed control under flooded paddy conditions, CYPIR (Rice Flatsedge); format: in vivo; conditions: preemergence, flooded paddy, rated three to four weeks after treatment; as to herbicidal effect rating, CYPIR: meaning of each grade not given here
[2] = tested on: Cyperus serotinus, Rottb.; assay: Preemergence weed control under flooded paddy conditions, CYPSE (Flatsedge); format: in vivo; conditions: preemergence, rated three to four weeks after treatment; as to herbicidal effect rating, CYPSE: meaning of each grade not given here
[3] = tested on: Monochoria vaginalis, Presl.; assay: Preemergence weed control under flooded paddy conditions, MOOVA (Monochoria); format: in vivo; conditions: preemergence, flooded paddy, rated three to four weeks after treatment; as to herbicidal effect rating, MOOVA: meaning of each grade not given here
Sagittaria pygmaea, L. = assay: Preemergence weed control under flooded paddy conditions, SAGPY (Arrowhead (Pygmaea)); format: in vivo; conditions: preemergence, flooded paddy, rated three to four weeks after treatment; as to herbicidal effect rating, SAGPY: meaning of each grade not given here
[4] = tested on: Oryza sativa, (L.) Tebonnet; assay: Rice tolerance to post-transplant applications under flooded paddy conditions (Example 187), ORYSAT (Rice, Tebonnet); conditions: rated three to four weeks after treatment

Compound: Cc1ccc(OCC(=O)OCCCl)c(-c2nsc3ccc(-n4c(=O)cc(C(F)(F)F)n(C)c4=O)cc23)c1 [Example 71, 2-Chloroethyl {{2-{5-[3,6-dihydro-3-methyl-2,6-dioxo-4-(trifluoromethyl)-1(2H)-pyrimidinyl]-1,2-benzisothiazol-3-yl}-p-tolyl}oxy}acetate]
- herbicidal effect rating, ECHORC ([1]; 0.0313 kg/ha): 5.5
- herbicidal effect rating, ECHORC ([1]; 0.0625 kg/ha): 7.5
- herbicidal effect rating, ECHORC ([1]; 0.1250 kg/ha): 8.5
- herbicidal effect rating, ECHORC ([1]; 0.2500 kg/ha): 9.0
- herbicidal effect rating, CYPIR (Cyperus iria; 0.0313 kg/ha): 0.0
- herbicidal effect rating, CYPIR (Cyperus iria; 0.0625 kg/ha): 0.0
- herbicidal effect rating, CYPIR (Cyperus iria; 0.1250 kg/ha): 0.0
- herbicidal effect rating, CYPIR (Cyperus iria; 0.2500 kg/ha): 2.0
- herbicidal effect rating, CYPSE ([2]; 0.0313 kg/ha): 0.0
- herbicidal effect rating, CYPSE ([2]; 0.0625 kg/ha): 0.0
- herbicidal effect rating, CYPSE ([2]; 0.1250 kg/ha): 2.0
- herbicidal effect rating, CYPSE ([2]; 0.2500 kg/ha): 9.0
- herbicidal effect rating, MOOVA ([3]; 0.0313 kg/ha): 8.0
- herbicidal effect rating, MOOVA ([3]; 0.0625 kg/ha): 9.0
- herbicidal effect rating, MOOVA ([3]; 0.1250 kg/ha): 9.0
- herbicidal effect rating, MOOVA ([3]; 0.2500 kg/ha): 9.0
- herbicidal effect rating, SAGPY (Sagittaria pygmaea, L.; 0.0313 kg/ha): 0.0
- herbicidal effect rating, SAGPY (Sagittaria pygmaea, L.; 0.0625 kg/ha): 0.0
- herbicidal effect rating, SAGPY (Sagittaria pygmaea, L.; 0.1250 kg/ha): 0.0
- herbicidal effect rating, SAGPY (Sagittaria pygmaea, L.; 0.2500 kg/ha): 4.0
- herbicidal effect rating, ORYSAT (rice tolerance) ([4]; 0.0313 kg/ha): 2.0
- herbicidal effect rating, ORYSAT (rice tolerance) ([4]; 0.0625 kg/ha): 3.5
- herbicidal effect rating, ORYSAT (rice tolerance) ([4]; 0.1250 kg/ha): 5.5
- herbicidal effect rating, ORYSAT (rice tolerance) ([4]; 0.2500 kg/ha): 7.0

Compound: CC/C(C=O)=C\c1nsc2ccc(-n3c(=O)cc(C(F)(F)F)n(C)c3=O)cc12 [Example 567, 1,2-Benzisothiazole-3-acrylaldehyde, 5-[3,6-dihydro-3-methyl-2,6-dioxo-4-(trifluoromethyl)-1(2H)-pyrimidinyl]-alpha-ethyl-, (E)-]
- herbicidal effect rating, ECHORC ([1]; Rate 0.0320 kg/ha): 0.0
- herbicidal effect rating, ECHORC ([1]; Rate 0.0620 kg/ha): 0.0
- herbicidal effect rating, ECHORC ([1]; Rate 0.1250 kg/ha): 2.0
- herbicidal effect rating, ECHORC ([1]; Rate 0.2500 kg/ha): 4.0
- herbicidal effect rating, CYPIR (Cyperus iria; Rate 0.0320 kg/ha): 4.0
- herbicidal effect rating, CYPIR (Cyperus iria; Rate 0.0620 kg/ha): 9.0
- herbicidal effect rating, CYPIR (Cyperus iria; Rate 0.1250 kg/ha): 4.0
- herbicidal effect rating, CYPIR (Cyperus iria; Rate 0.2500 kg/ha): 9.0
- herbicidal effect rating, CYPSE ([2]; Rate 0.0320 kg/ha): 0.0
- herbicidal effect rating, CYPSE ([2]; Rate 0.0620 kg/ha): 0.0
- herbicidal effect rating, CYPSE ([2]; Rate 0.1250 kg/ha): 0.0
- herbicidal effect rating, CYPSE ([2]; Rate 0.2500 kg/ha): 0.0
- herbicidal effect rating, MOOVA ([3]; Rate 0.0320 kg/ha): 0.0
- herbicidal effect rating, MOOVA ([3]; Rate 0.0620 kg/ha): 3.0
- herbicidal effect rating, MOOVA ([3]; Rate 0.1250 kg/ha): 9.0
- herbicidal effect rating, MOOVA ([3]; Rate 0.2500 kg/ha): 9.0
- herbicidal effect rating, SAGPY (Sagittaria pygmaea, L.; Rate 0.0320 kg/ha): 0.0
- herbicidal effect rating, SAGPY (Sagittaria pygmaea, L.; Rate 0.0620 kg/ha): 0.0
- herbicidal effect rating, SAGPY (Sagittaria pygmaea, L.; Rate 0.1250 kg/ha): 0.0
- herbicidal effect rating, SAGPY (Sagittaria pygmaea, L.; Rate 0.2500 kg/ha): 0.0
- herbicidal effect rating ORYSAT ([4]; Rate 0.0320 kg/ha): 0.0
- herbicidal effect rating ORYSAT ([4]; Rate 0.0620 kg/ha): 0.0
- herbicidal effect rating ORYSAT ([4]; Rate 0.1250 kg/ha): 1.0
- herbicidal effect rating ORYSAT ([4]; Rate 0.2500 kg/ha): 2.0

Compound: Cn1c(C(F)(F)F)cc(=O)n(-c2ccc3snc(CSCC(=O)O)c3c2)c1=O [Example 283, Acetic acid, {{{5-[3,6-dihydro-3-methyl-2,6-dioxo-4-(trifluoromethyl)-1(2H)-pyrimidinyl]-1,2-benzisothiazol-3-yl}methyl}thio}-]
- ECHORC herbicidal effect rating ([1]; Rate 0.0320 kg/ha): 0.0
- ECHORC herbicidal effect rating ([1]; Rate 0.0620 kg/ha): 3.4
- ECHORC herbicidal effect rating ([1]; Rate 0.1250 kg/ha): 3.4
- ECHORC herbicidal effect rating ([1]; Rate 0.2500 kg/ha): 6.0
- ECHORC herbicidal effect rating ([1]; Rate 0.5000 kg/ha): 6.0
- CYPIR herbicidal effect rating (Cyperus iria; Rate 0.0320 kg/ha): 0.0
- CYPIR herbicidal effect rating (Cyperus iria; Rate 0.0620 kg/ha): 4.0
- CYPIR herbicidal effect rating (Cyperus iria; Rate 0.1250 kg/ha): 8.0
- CYPIR herbicidal effect rating (Cyperus iria; Rate 0.2500 kg/ha): 9.0
- CYPIR herbicidal effect rating (Cyperus iria; Rate 0.5000 kg/ha): 9.0
- CYPSE herbicidal effect rating ([2]; Rate 0.5000 kg/ha): 0.0
- MOOVA herbicidal effect rating ([3]; Rate 0.0320 kg/ha): 2.0
- MOOVA herbicidal effect rating ([3]; Rate 0.0620 kg/ha): 8.0
- MOOVA herbicidal effect rating ([3]; Rate 0.1250 kg/ha): 9.0
- MOOVA herbicidal effect rating ([3]; Rate 0.2500 kg/ha): 9.0
- MOOVA herbicidal effect rating ([3]; Rate 0.5000 kg/ha): 9.0
- SAGPY herbicidal effect rating (Sagittaria pygmaea, L.; Rate 0.0320 kg/ha): 0.0
- SAGPY herbicidal effect rating (Sagittaria pygmaea, L.; Rate 0.0620 kg/ha): 0.0
- SAGPY herbicidal effect rating (Sagittaria pygmaea, L.; Rate 0.1250 kg/ha): 0.0
- SAGPY herbicidal effect rating (Sagittaria pygmaea, L.; Rate 0.5000 kg/ha): 9.0
- ORYSAT herbicidal effect rating ([4]; Rate 0.0320 kg/ha): 2.0
- ORYSAT herbicidal effect rating ([4]; Rate 0.0620 kg/ha): 2.0
- ORYSAT herbicidal effect rating ([4]; Rate 0.1250 kg/ha): 4.0
- ORYSAT herbicidal effect rating ([4]; Rate 0.2500 kg/ha): 5.0
- ORYSAT herbicidal effect rating ([4]; Rate 0.5000 kg/ha): 4.0

Compound: Cn1c(C(F)(F)F)cc(=O)n(-c2ccc3snc(C(=O)NS(N)(=O)=O)c3c2)c1=O [Example 472, 1,2-Benzisothiazole-3-carboxamide, 5-[3,6-dihydro-3-methyl-2,6-dioxo-4-(trifluoromethyl)-1(2H)-pyrimidinyl]-N-sulfamoyl-]
- ECHORC herbicidal rating ([1]; 0.0320 kg/ha): 3.0
- ECHORC herbicidal rating ([1]; 0.0620 kg/ha): 3.0
- ECHORC herbicidal rating ([1]; 0.1250 kg/ha): 4.0
- ECHORC herbicidal rating ([1]; 0.2500 kg/ha): 4.0
- CYPIR herbicidal rating (Cyperus iria; 0.0320 kg/ha): 4.0
- CYPIR herbicidal rating (Cyperus iria; 0.0620 kg/ha): 4.0
- CYPIR herbicidal rating (Cyperus iria; 0.1250 kg/ha): 5.0
- CYPIR herbicidal rating (Cyperus iria; 0.2500 kg/ha): 6.0
- CYPSE herbicidal rating ([2]; 0.0320 kg/ha): 0.0
- CYPSE herbicidal rating ([2]; 0.1250 kg/ha): 6.0
- CYPSE herbicidal rating ([2]; 0.2500 kg/ha): 9.0
- MOOVA herbicidal rating ([3]; 0.0320 kg/ha): 5.0
- MOOVA herbicidal rating ([3]; 0.0620 kg/ha): 6.0
- MOOVA herbicidal rating ([3]; 0.1250 kg/ha): 7.0
- MOOVA herbicidal rating ([3]; 0.2500 kg/ha): 7.0
- SAGPY herbicidal rating (Sagittaria pygmaea, L.; 0.0320 kg/ha): 0.0
- SAGPY herbicidal rating (Sagittaria pygmaea, L.; 0.0620 kg/ha): 0.0
- SAGPY herbicidal rating (Sagittaria pygmaea, L.; 0.1250 kg/ha): 2.0
- SAGPY herbicidal rating (Sagittaria pygmaea, L.; 0.2500 kg/ha): 3.0
- ORYSAT herbicidal rating (rice tolerance) ([4]; 0.0320 kg/ha): 0.0
- ORYSAT herbicidal rating (rice tolerance) ([4]; 0.0620 kg/ha): 1.0
- ORYSAT herbicidal rating (rice tolerance) ([4]; 0.1250 kg/ha): 3.0
- ORYSAT herbicidal rating (rice tolerance) ([4]; 0.2500 kg/ha): 6.0

Compound: COC(=O)C(C)Oc1cc(Cl)c(C)cc1-c1nsc2ccc(-n3c(=O)cc(C(F)(F)F)n(C)c3=O)cc12 (centres unmarked) [Example 492, Propionic acid, 2-{{5-chloro-2-{5-[3,6-dihydro-3-methyl-2,6-dioxo-4-(trifluoromethyl)-1(2H)-pyrimidinyl]-1,2-benzisothiazol-3-yl}-p-tolyl}oxy}-, methyl ester]
- ECHORC herbicidal rating ([1]; 0.0320 kg/ha): 4.0
- ECHORC herbicidal rating ([1]; 0.0620 kg/ha): 6.0
- ECHORC herbicidal rating ([1]; 0.1250 kg/ha): 6.0
- ECHORC herbicidal rating ([1]; 0.2500 kg/ha): 9.0
- CYPIR herbicidal rating (Cyperus iria; 0.0320 kg/ha): 4.0
- CYPIR herbicidal rating (Cyperus iria; 0.0620 kg/ha): 4.0
- CYPIR herbicidal rating (Cyperus iria; 0.1250 kg/ha): 4.0
- CYPIR herbicidal rating (Cyperus iria; 0.2500 kg/ha): 5.0
- CYPSE herbicidal rating ([2]; 0.2500 kg/ha): 0.0
- MOOVA herbicidal rating ([3]; 0.0320 kg/ha): 6.0
- MOOVA herbicidal rating ([3]; 0.0620 kg/ha): 6.0
- MOOVA herbicidal rating ([3]; 0.1250 kg/ha): 7.0
- MOOVA herbicidal rating ([3]; 0.2500 kg/ha): 7.0
- SAGPY herbicidal rating (Sagittaria pygmaea, L.; 0.0320 kg/ha): 0.0
- SAGPY herbicidal rating (Sagittaria pygmaea, L.; 0.0620 kg/ha): 0.0
- SAGPY herbicidal rating (Sagittaria pygmaea, L.; 0.1250 kg/ha): 0.0
- SAGPY herbicidal rating (Sagittaria pygmaea, L.; 0.2500 kg/ha): 2.0
- ORYSAT herbicidal rating (rice tolerance) ([4]; 0.0320 kg/ha): 2.0
- ORYSAT herbicidal rating (rice tolerance) ([4]; 0.0620 kg/ha): 2.0
- ORYSAT herbicidal rating (rice tolerance) ([4]; 0.1250 kg/ha): 2.0
- ORYSAT herbicidal rating (rice tolerance) ([4]; 0.2500 kg/ha): 3.0

Compound: COc1ccc(C)cc1-c1nsc2cc(F)c(-n3c(=O)cc(C(F)(F)F)n(C)c3=O)cc12 [Example 462, 2,4(1H,3H)-Pyrimidinedione, 3-[6-fluoro-3-(6-methoxy-m-tolyl)-1,2-benzisothiazol-5-yl]-1-methyl-6-(trifluoromethyl)-]
- ECHORC herbicidal rating ([1]; 0.0320 kg/ha): 9.0
- ECHORC herbicidal rating ([1]; 0.0620 kg/ha): 9.0
- ECHORC herbicidal rating ([1]; 0.1250 kg/ha): 9.0
- ECHORC herbicidal rating ([1]; 0.2500 kg/ha): 9.0
- CYPIR herbicidal rating (Cyperus iria; 0.0320 kg/ha): 9.0
- CYPIR herbicidal rating (Cyperus iria; 0.0620 kg/ha): 9.0
- CYPIR herbicidal rating (Cyperus iria; 0.1250 kg/ha): 9.0
- CYPIR herbicidal rating (Cyperus iria; 0.2500 kg/ha): 9.0
- CYPSE herbicidal rating ([2]; 0.0620 kg/ha): 3.0
- MOOVA herbicidal rating ([3]; 0.0320 kg/ha): 9.0
- MOOVA herbicidal rating ([3]; 0.0620 kg/ha): 9.0
- MOOVA herbicidal rating ([3]; 0.1250 kg/ha): 9.0
- MOOVA herbicidal rating ([3]; 0.2500 kg/ha): 9.0
- SAGPY herbicidal rating (Sagittaria pygmaea, L.; 0.0320 kg/ha): 1.0
- SAGPY herbicidal rating (Sagittaria pygmaea, L.; 0.0620 kg/ha): 4.0
- SAGPY herbicidal rating (Sagittaria pygmaea, L.; 0.1250 kg/ha): 5.0
- SAGPY herbicidal rating (Sagittaria pygmaea, L.; 0.2500 kg/ha): 6.0
- ORYSAT herbicidal rating (rice tolerance) ([4]; 0.0320 kg/ha): 5.0
- ORYSAT herbicidal rating (rice tolerance) ([4]; 0.0620 kg/ha): 5.0
- ORYSAT herbicidal rating (rice tolerance) ([4]; 0.2500 kg/ha): 6.0
